For this test, the target named is Protein disulfide-isomerase (Bos taurus) (UniProt P05307). Kind of test: The assay was carried out in 384-well plates according to literature procedures [46]. Each well contained 100mM sodium phosphate and 0.2mM EDTA pH 7.0. 10ng PDI was pre-incubated with various concentration of probes (4% DMSO) in 20uL buffer for 30 min at 37 degrees Celsius, followed by the addition of insulin (0.16mM final concentration) and DDT (1mM.
Sequence of Protein disulfide-isomerase (Bos taurus) (P05307 whole entry, looked up): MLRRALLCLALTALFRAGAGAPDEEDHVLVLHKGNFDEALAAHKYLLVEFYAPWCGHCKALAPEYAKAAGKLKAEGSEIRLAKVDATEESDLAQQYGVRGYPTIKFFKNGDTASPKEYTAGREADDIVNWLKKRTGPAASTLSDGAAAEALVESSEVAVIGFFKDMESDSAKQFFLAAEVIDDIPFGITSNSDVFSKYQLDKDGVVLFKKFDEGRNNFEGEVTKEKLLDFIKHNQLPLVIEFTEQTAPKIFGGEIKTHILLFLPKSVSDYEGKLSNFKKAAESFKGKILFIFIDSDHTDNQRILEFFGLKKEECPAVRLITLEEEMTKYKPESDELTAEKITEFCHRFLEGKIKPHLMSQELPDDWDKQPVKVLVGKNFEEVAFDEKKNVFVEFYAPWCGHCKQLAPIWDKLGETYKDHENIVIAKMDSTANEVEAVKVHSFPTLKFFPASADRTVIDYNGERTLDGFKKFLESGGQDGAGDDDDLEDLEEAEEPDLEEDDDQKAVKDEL
A word on the IC50: it is the concentration at which inhibition is half-maximal. Read a high IC50 as weaker potency in that assay. The molecule `C#CCNC(=O)[C@H](Cc1ccc(OS(=O)(=O)C=C)cc1)NC(=O)c1ccc2ccccc2c1` [PDI inhibitor P8] showed an IC50 of 2700 nM.
In the case of `C#CCNC(=O)[C@H](Cc1ccc(OS(=O)(=O)C=C)cc1)NC(=O)C1(C)CC1(Cl)Cl` (stereo partly drawn) [PDI inhibitor P19], the midpoint of inhibition, the IC50, lay at 2500 nM.
In the case of `C#CCNC(=O)[C@H](Cc1ccc(OS(=O)(=O)C=C)cc1)NC(=O)c1ccc(F)cc1Cl` [PDI inhibitor P18] it was 2800 nM; in that of `C#CCCNC(=O)[C@H](Cc1ccc(OS(=O)(=O)C=C)cc1)NC(=O)[C@H](Cc1ccccc1)NC(=O)OC(C)(C)C` [PDI inhibitor P1], 1700 nM.
To `C#CCNC(=O)[C@H](Cc1ccc(OS(=O)(=O)C=C)cc1)NC(=O)CCc1ccccc1` [PDI inhibitor P24] belongs 2200 nM.
To `C=CS(=O)(=O)Oc1ccc(C[C@H](NC(=O)[C@H](Cc2ccccc2)NC(=O)OC(C)(C)C)C(=O)NCCNC(=O)CCCC[C@@H]2SCC3NC(=O)NC32)cc1` (stereo partly drawn) [PDI inhibitor P11] belongs 1100 nM; to `C#CCNC(=O)[C@H](Cc1ccc(OS(=O)(=O)C=C)cc1)NC(=O)[C@H](Cc1ccccc1)NC(=O)OC(C)(C)C` [PDI inhibitor P6], 1900 nM.
Molecule `C#CCNC(=O)[C@H](Cc1ccc(OS(=O)(=O)C=C)cc1)NC(=O)c1c(F)c(F)c(F)c(F)c1F` [PDI inhibitor P13] had a concentration for half-maximal inhibition (IC50) of 2500 nM. The IC50 values of the last two molecules are within 1.5-fold of each other.
With `C#CCNC(=O)[C@H](Cc1ccc(OS(=O)(=O)C=C)cc1)NC(=O)C1(c2ccccc2)CC1` [PDI inhibitor P10], the half-maximal inhibitory concentration (IC50) worked out at 2100 nM.
To `C#CCNC(=O)[C@H](Cc1ccc(OS(=O)(=O)C=C)cc1)NC(=O)CCc1ccc(OC)cc1` [PDI inhibitor P17] belongs 3300 nM; to `C#CCNC(=O)[C@H](Cc1ccc(OS(=O)(=O)C=C)cc1)NC(=O)C1(C)CCCCC1` [PDI inhibitor P16], 2300 nM.
Turning to `C#CCCNC(=O)[C@H](Cc1cc(=O)oc2cc(OS(=O)(=O)C=C)ccc12)NC(=O)[C@H](Cc1ccccc1)NC(=O)OC(C)(C)C` [PDI inhibitor P2], inhibition was half-maximal at 1800 nM (IC50).
`C#CCNC(=O)[C@H](Cc1ccc(OS(=O)(=O)C=C)cc1)NC(=O)c1ccc(CC)cc1` [PDI inhibitor P15] showed a concentration for half-maximal inhibition (IC50) of 1100 nM.
To `C#CCNC(=O)[C@H](Cc1ccc(OS(=O)(=O)C=C)cc1)NC(=O)c1cc(OC)c(OC)cc1Br` [PDI inhibitor P25] belongs 3400 nM; to `C#CCNC(=O)[C@H](Cc1ccc(OS(=O)(=O)C=C)cc1)NC(=O)C(Cl)CC` (stereo partly drawn) [PDI inhibitor P20], 5700 nM; to `C#CCNC(=O)[C@H](Cc1ccc(OS(=O)(=O)C=C)cc1)NC(=O)C(=O)c1ccccc1` [PDI inhibitor P23], 1800 nM.
In the case of `COC(=O)C1(C)c2[nH]c3ccccc3c2CCN1C(=O)CCl` (stereo not drawn) [16F16] it was 74000 nM.
In the case of `C#CCNC(=O)[C@H](Cc1ccc(OS(=O)(=O)C=C)cc1)NC(=O)C(C)(C)CC` [PDI inhibitor P12] it was 3200 nM; in that of `C#CCNC(=O)[C@H](Cc1ccc(OS(=O)(=O)C=C)cc1)NC(=O)c1ccc(OC)cc1` [PDI inhibitor P9], 5300 nM; in that of `C#CCNC(=O)[C@H](Cc1ccc(OS(=O)(=O)C=C)cc1)NC(=O)c1ccc(F)c(C(F)(F)F)c1` [PDI inhibitor P14], 1000 nM.
`C#CCNC(=O)[C@H](Cc1ccc(OS(=O)(=O)C=C)cc1)NC(=O)c1ccc(C)c(F)c1` [PDI inhibitor P21] had an IC50 of 2500 nM.
In the case of `C#CCNC(=O)[C@H](Cc1ccc(OS(=O)(=O)C=C)cc1)NC(=O)c1cc(F)c(F)c(OC)c1F` [PDI inhibitor P22] it was 1400 nM.
For `C#CCNC(=O)[C@H](Cc1ccc(OS(=O)(=O)C=C)cc1)NC(=O)c1ccc(C)cc1C` [PDI inhibitor P7], the concentration for half-maximal inhibition (IC50) came to 3100 nM. This IC50 is about 2.2-fold higher than that of the molecule before.

The values above are taken from BindingDB's records for doi:10.1021/cb4002602 (National University of Singapore, 2013).
